Measured values: patent US20020164397A1, “N-[N-(3, 3-DIMETHYLBUTYL)-L-ALPHA-ASPARTYL]-L-PHENYLALANINE 1-METHYL ESTER AS A SWEETENER IN CHEWING GUM” (priority 1998, published 2002)
“And” between values parts separate entries of the source, which are not always exact repeats. Equal values may be shown once. Where a SMILES comes first, the peptide text is derived from it.

Columns and labels:
[1] = Sweetness intensity of chewing gums versus chewing time, trained panel of experts (0-15 scale); type: in vivo; details: for average sweetness loss rate at 6-10 minutes / average sweetness intensity at 6-10 minutes / average sweetness loss rate at 10-20 minutes / average sweetness intensity at 10-20 minutes: isosweet sweetener concentrations; for average sweetness loss rate at 6-10 minutes / average sweetness intensity at 6-10 minutes: chewing time 6-10 minutes; for average sweetness intensity at 6-10 minutes / average sweetness intensity at 10-20 minutes: scale 0-15; for average sweetness loss rate at 10-20 minutes / average sweetness intensity at 10-20 minutes: chewing time 10-20 minutes
Method: FIG. 1 is a plot of the sweetness intensity of chewing gum prepared with sugar (sucrose), saccharin, aspartame, acesulfame-K, sucralose or neotame as a function of chewing time. Each chewing gum comprises the corresponding sweetener at a sweetener concentration that provides an identical (“isosweet”) degree of sweetness. The sweetness intensity was measured by a trained panel of experts and is expressed as the amount of sweetness based on a sweetness intensity scale of 0-15 units.
The sweetness profile of neotame in chewing gum is illustrated in FIG. 1. Also illustrated in FIG. 1 is a comparison of the sweetness intensity profiles, as measured by a trained panel of experts, of chewing gums prepared with neotame, aspartame, acesulfame-K, saccharin, sucralose, and sugar (sucrose). The sweetness detected is expressed as the amount of sweetness based on a universal sweetness scale of 0-15, and the values were obtained by having subjects of the trained panel chew pieces of gum containing the sweetener and reporting perceived sweetness after various chewing intervals. Since each chewing gum was prepared with an “isosweet” concentration (i.e., same level of sweetness; e.g., 100 ppm neotame and 3000 ppm aspartame are isosweet concentrations) of the respective sweetener and the scale is a measure of absolute sweetness at any point during chewing, the different sweetener profiles can be compared directly to each other.
Table 1 summarizes the sweetness intensity loss rates and average sweetness intensities which occur at a chewing time period of between 6 and 10 minutes and those which occur at a chewing time period between 10 and 20 minutes for a variety of sweeteners. The sweetness intensity loss rate is calculated as the difference in sweetness intensities measured at any two time points divided by the number of minutes of the time interval, and approximates the mathematical slope of the downward trend of sweetness intensity over time.
These values were determined by calculating the average sweetness intensity measured at the specified evaluation times. For example, for the chewing gum comprising neotame at between 6 and 10 minutes, the average sweetness intensity is determined to be (5.2+4.6+4.2)/3=4.7.
The advantage of sweetness extension provided by neotame can also be illustrated by comparison of the sweetness intensity half-lives over time. Table 2 summarizes the half-lives of sweetness intensity of chewing gums comprising different sweeteners after the maximum sweetness intensities (around two minutes) are reached. The half-life is a measure of the time of chewing in which half of the sweetness is lost relative to the time in which the sweetness intensity maximum is achieved.
(§1) The sensory profiling of chewing gum samples was carried out using the Spectrum Method of Descriptive Analysis (Meilgaard, M., Civille, G. V., Carr, B. T, 1999. Sensory Evaluation Techniques, 3rd Ed. CRC Press, New York, p. 173-229). Extensive sensory training was conducted in order to familiarize the panel, consisting of 6-8 individuals, with a product category, exposing the panel to the flavor attributes of the category and in-depth practice by the panelists in the use of a fifteen point scale for describing intensity differences. Once trained, the method enabled the trained panelists to indicate the sensory intensity of either sweetness intensity or flavor intensity in a universal context, where 0 indicates “none” of the attribute present, 2 approximates “threshold” intensities, 5 “slight or low” level, 7.5 “moderate” intensity, 10 “strong” and 15 “extreme”.
Chewing of the gums was initiated by the panel leader while starting a timer. As the time intervals 0.25, 0.5, 1.0, 2.0, 3.0, 4.0, 6.0, 8.0, 10.0, 12.0, 16.0, and 20.0 minutes approached, the panel leader gave panelists a five second warning and then called out the time to rate the attributes. To minimize fatigue, 3-4 samples were evaluated during one session. […]

[2] = Peppermint flavor intensity of chewing gums versus chewing time, trained panel of experts (0-15 scale); type: in vivo
Method: FIG. 2 is a plot of peppermint flavor intensity verses chewing time of chewing gums prepared with isosweet levels of aspartame (3000 ppm) and neotame (100 ppm). The chewing gum prepared with aspartame comprised a 1.5 wt % peppermint flavor, while the four neotame chewing gums comprised peppermint flavor at concentrations of 1.5, 1.25, 1.00, and 0.75 wt %. The peppermint flavor intensity was measured by a trained panel of experts and is plotted as a function of chewing time. The peppermint flavor intensity is expressed as the amount of peppermint flavor based on a universal peppermint intensity scale of 0-15 units.
As in the case of sweetness intensity comparisons, since the chewing gums were prepared with an identical amount of flavor and the scale is a measure of absolute flavor at any point during chewing, the different flavor profiles can be compared directly to each other. The rate of flavor intensity loss of the chewing gum comprising neotame is 0.0875 flavor intensity units per minute, while that of chewing gum comprising aspartame was determined to be 0.150 flavor intensity units per minute. Thus, the rate of flavor loss of a chewing gum comprising neotame is nearly half that of the flavor loss for a chewing gum comprising aspartame at an isosweet level and containing an equal concentration of peppermint flavor.
Table 4 summarizes the half-lives of both sweetness and flavor of chewing gums prepared with aspartame (3000 ppm) with 1.5 wt % flavor and neotame (100 ppm) with 1.5, 1.25, 1.00, and 0.75 wt % flavor amounts. The half-life is the time in minutes for the intensity to fall to half of its maximum value (sweetness, 2 minutes; flavor, 4 minutes).
as §1
Chewing of the gums was initiated by the panel leader while starting a timer. As the time intervals 0.25, 0.5, 1.0, 2.0, 3.0, 4.0, 6.0, 8.0, 10.0, 12.0, 16.0, and 20.0 minutes approached, the panel leader gave panelists a five second warning and then called out the time to rate the attributes. To minimize fatigue, 3-4 samples were evaluated during one session. Samples were assessed in duplicate, presented in a balanced order, unwrapped in two ounce plastic cups, and randomly coded with three-digit numbers. The panelists were given a ten minute break between samples to minimize carry-over effects. Water, Mott's Natural Applesauce and unsalted soda crackers were given as palate cleansers.
The data was analyzed for standard ANOVA for across sample comparison of attributes at each chew time. Data was then plotted as a graph of intensities vs. chewing time yielding either a sweetness or flavor profile for the entire chew time.

[3] = relative to sucrose; cited from earlier work
[4] = chewing time in which half of the sweetness is lost relative to the sweetness intensity maximum, isosweet concentrations
[5] = 1.50% flavor, time for intensity to fall to half of its maximum (2 minutes), aspartame 3000 ppm / neotame 100 ppm
[6] = 1.50% flavor, time for intensity to fall to half of its maximum (4 minutes), aspartame 3000 ppm / neotame 100 ppm
[7] = 1.50% peppermint flavor, isosweet aspartame 3000 ppm / neotame 100 ppm
[8] = 0.75% peppermint flavor, neotame 100 ppm
[9] = 1.00% peppermint flavor, neotame 100 ppm
[10] = 1.25% peppermint flavor, neotame 100 ppm
[11] = flavor amounts less than full-flavored (reduced to at least around 50%)
[12] = full-flavored chewing gum, about 4 to about 20 minutes of chewing

For `CC1=CC(=O)[N-]S(=O)(=O)O1.[K+]` [acesulfame-K, the potassium salt of 3,4-dihydro-6-methyl-1,2,3-oxathiazine-4-one-2,2-dioxide], the “average sweetness loss rate at 6-10 minutes” value ([1]; chewing gum) was 0.45 intensity units/min, the “average sweetness intensity at 6-10 minutes” value ([1]; chewing gum) was 4.3 intensity units and the “average sweetness loss rate at 10-20 minutes” value ([1]; chewing gum) was 0.26 intensity units/min. The “average sweetness intensity at 10-20 minutes” value ([1]; chewing gum) was 2.0 intensity units and the “half-life of sweetness intensity” value [1, 4] was 5.5 min.
In the case of `COC(=O)[C@H](Cc1ccccc1)NC(=O)[C@@H](N)CC(=O)O` [aspartame] (HELM PEPTIDE1{D.F.[CO[*:1]]}$$$$V2.0), the “half-life of sweetness intensity” value [1, 5] is reported as 7.6 min, the “average sweetness loss rate at 6-10 minutes” value ([1]; chewing gum) is reported as 0.52 intensity units/min and the “average sweetness intensity at 6-10 minutes” value ([1]; chewing gum) is reported as 4.6 intensity units. The “average sweetness loss rate at 10-20 minutes” value ([1]; chewing gum) was 0.25 intensity units/min, the “average sweetness intensity at 10-20 minutes” value ([1]; chewing gum) was 2.3 intensity units and the “half-life of sweetness intensity” value [1, 4] was 6.4 min. For the same compound, the “half-life of peppermint flavor intensity” value [2, 6] was 19.7 min, the “average flavor intensity at 4-20 minutes” value [2, 7] was 4.2 intensity units and the “flavor loss rate at 4-20 minutes” value [2, 7] was 0.150 flavor intensity units per minute.
For `COC(=O)[C@H](Cc1ccccc1)NC(=O)[C@H](CC(=O)O)NCCC(C)(C)C` [neotame, N-[N-(3,3-dimethylbutyl)-L-α-aspartyl]-L-phenylalanine 1-methyl ester], the “half-life of sweetness intensity” value ([1]; 0.75% flavor, neotame 100 ppm) was 16.9 min, the “half-life of sweetness intensity” value ([1]; 1.00% flavor, neotame 100 ppm) was 20.7 min and the “half-life of sweetness intensity” value ([1]; 1.25% flavor, neotame 100 ppm) was 17.2 min. For the same compound, the “half-life of sweetness intensity” value [1, 5] was 17.0 min, the “sweetness intensity at 6 minutes” value ([1]; chewing gum, 100 ppm neotame, 6 minutes of chewing) was 5.2 sweetness intensity units and the “sweetness intensity at 10 minutes” value ([1]; chewing gum, 100 ppm neotame, 10 minutes of chewing) was 4.2 sweetness intensity units. For the same compound, the “sweetness intensity at 8 minutes” value ([1]; chewing gum, 100 ppm neotame, evaluation time between 6 and 10 minutes) was 4.6 sweetness intensity units, the “half-life of sweetness intensity” value [1, 4] was 14.9 min and the “half-life of peppermint flavor intensity” value ([2]; 0.75% flavor, neotame 100 ppm) was 33.1 min. The “average flavor intensity at 4-20 minutes” value [2, 8] was 3.9 intensity units, the “flavor loss rate at 4-20 minutes” value [2, 8] was 0.070 flavor intensity units per minute and the “half-life of peppermint flavor intensity” value ([2]; 1.00% flavor, neotame 100 ppm) was 31.7 min. The “average flavor intensity at 4-20 minutes” value [2, 9] was 4.0 intensity units, the “flavor loss rate at 4-20 minutes” value [2, 9] was 0.075 flavor intensity units per minute and the “half-life of peppermint flavor intensity” value ([2]; 1.25% flavor, neotame 100 ppm) was 31.3 min. The “average flavor intensity at 4-20 minutes” value [2, 10] was 4.2 intensity units, the “flavor loss rate at 4-20 minutes” value [2, 10] was 0.088 flavor intensity units per minute and the “half-life of peppermint flavor intensity” value [2, 6] was 44.3 min. For the same compound, the “average flavor intensity at 4-20 minutes” value [2, 7] was 4.6 intensity units, the “flavor loss rate at 4-20 minutes” value [2, 7] was 0.0875 flavor intensity units per minute and 0.088 flavor intensity units per minute and the “average flavor intensities at 4-20 minutes” value ([2]; chewing gums comprising neotame having less flavor amounts than 1.5%) was “around 4.0 intensity units”. For the same compound, the average flavor intensity [2, 11] was ≥ 3.5 flavor intensity units, the “average flavor loss rate” value [2, 11] was “less than 0.1 flavor intensity units per minute” and the average flavor intensity [2, 12] was ≥ 4 flavor intensity units. The “average flavor loss rate” value [2, 12] was “less than 0.1 flavor intensity units per minute” and the “sweetness potency (× sweeter than sucrose)” value [3] was “about 8000 ×”.
For `O=C1NS(=O)(=O)c2ccccc21` [saccharin], the “average sweetness loss rate at 6-10 minutes” value ([1]; chewing gum) was 0.52 intensity units/min, the “average sweetness intensity at 6-10 minutes” value ([1]; chewing gum) was 3.1 intensity units and the “average sweetness loss rate at 10-20 minutes” value ([1]; chewing gum) was 0.15 intensity units/min. For the same compound, the “average sweetness intensity at 10-20 minutes” value ([1]; chewing gum) was 1.2 intensity units and the “half-life of sweetness intensity” value [1, 4] was 4.5 min.
With `OC[C@H]1O[C@H](O[C@]2(CCl)O[C@H](CCl)[C@@H](O)[C@@H]2O)[C@H](O)[C@@H](O)[C@H]1Cl` [sucralose] the “average sweetness loss rate at 6-10 minutes” value ([1]; chewing gum) was 0.52 intensity units/min, the “average sweetness intensity at 6-10 minutes” value ([1]; chewing gum) was 3.3 intensity units and the “average sweetness loss rate at 10-20 minutes” value ([1]; chewing gum) was 0.16 intensity units/min. The “average sweetness intensity at 10-20 minutes” value ([1]; chewing gum) was 1.3 intensity units and the “half-life of sweetness intensity” value [1, 4] was 4.5 min.
With `OC[C@H]1O[C@@](CO)(O[C@H]2O[C@H](CO)[C@@H](O)[C@H](O)[C@H]2O)[C@@H](O)[C@@H]1O` [sucrose] the “average sweetness loss rate at 6-10 minutes” value ([1]; chewing gum) was 0.45 intensity units/min, the “average sweetness intensity at 6-10 minutes” value ([1]; chewing gum) was 2.1 intensity units and the “average sweetness loss rate at 10-20 minutes” value ([1]; chewing gum) was 0.11 intensity units/min. The “average sweetness intensity at 10-20 minutes” value ([1]; chewing gum) was 0.6 intensity units and the “half-life of sweetness intensity” value [1, 4] was 3.5 min.
